Source: PMC5218480 (PLoS ONE, 2017)

Tested on: MV-4-11 cells
Experiment: Gene expression microarray analysis (Affymetrix PrimeView) and GSEA
Assay type: cell-based, human
Design: RFU PODN (11730768_x_at) / Fold change /veh PODN (11730768_x_at) / RFU LINC00158 (11744669_a_at) / Fold change /veh LINC00158 (11744669_a_at) / RFU DUSP10 (11751237_a_at) / Fold change /veh DUSP10 (11751237_a_at) / RFU ID3 (11757404_x_at) / Fold change /veh ID3 (11757404_x_at) / RFU PLEKHG5 (11737974_s_at) / Fold change /veh PLEKHG5 (11737974_s_at) / RFU LRRC4B (11730491_at) / Fold change /veh LRRC4B (11730491_at) / RFU GIMAP4 (11747438_a_at) / Fold change /veh GIMAP4 (11747438_a_at) / RFU KRT8 (11758183_x_at) / Fold change /veh KRT8 (11758183_x_at) / RFU CNN1 (11734310_a_at) / Fold change /veh CNN1 (11734310_a_at) / RFU VPS37D (11726825_at) / Fold change /veh VPS37D (11726825_at) / RFU C10orf10 (11716522_x_at) / Fold change /veh C10orf10 (11716522_x_at) / RFU KIR2DL2 /// KIR2DL4 /// KIR2DL5A /// KIR2DL5B /// KIR2DS1 /// KIR2DS2 /// KIR2DS3 /// KIR2DS4 /// KIR3DL3 /// KIR3DL3 /// KIR3DS1 (11738374_at) / Fold change /veh KIR2DL2 /// KIR2DL4 /// KIR2DL5A /// KIR2DL5B /// KIR2DS1 /// KIR2DS2 /// KIR2DS3 /// KIR2DS4 /// KIR3DL3 /// KIR3DL3 /// KIR3DS1 (11738374_at) / RFU C1QL1 (11718748_at) / Fold change /veh C1QL1 (11718748_at) / RFU TMPRSS4 (11747572_a_at) / Fold change /veh TMPRSS4 (11747572_a_at) / RFU HAMP (11756126_x_at) / Fold change /veh HAMP (11756126_x_at) / RFU RNFT2 (11725882_a_at) / Fold change /veh RNFT2 (11725882_a_at) / RFU NR4A2 (11747474_a_at) / Fold change /veh NR4A2 (11747474_a_at) / RFU ABCC12 (11746883_a_at) / Fold change /veh ABCC12 (11746883_a_at) / RFU TMEM136 (11760407_x_at) / Fold change /veh TMEM136 (11760407_x_at) / RFU CLDN22 /// WWC2 (11732394_at) / Fold change /veh CLDN22 /// WWC2 (11732394_at) / RFU HLA-DPB1 (11760878_x_at) / Fold change /veh HLA-DPB1 (11760878_x_at) / RFU SPINT1 (11716480_a_at) / Fold change /veh SPINT1 (11716480_a_at) / RFU GAP43 (11754022_s_at) / Fold change /veh GAP43 (11754022_s_at) / RFU A4GNT (11735810_at) / Fold change /veh A4GNT (11735810_at) / RFU PRB3 (11715151_x_at) / Fold change /veh PRB3 (11715151_x_at) / RFU TUBB4B (11761932_at) / Fold change /veh TUBB4B (11761932_at) / RFU CAPN14 (11732068_a_at) / Fold change /veh CAPN14 (11732068_a_at) / RFU TMCC2 (11721928_a_at) / Fold change /veh TMCC2 (11721928_a_at) / RFU IRGQ (11745062_a_at) / Fold change /veh IRGQ (11745062_a_at) / RFU FAM174B (11720279_a_at) / Fold change /veh FAM174B (11720279_a_at) / RFU TMPRSS4 (11748680_a_at) / Fold change /veh TMPRSS4 (11748680_a_at) / RFU FAM212B (11763350_a_at) / Fold change /veh FAM212B (11763350_a_at) / RFU PLEKHG5 (11743358_a_at) / Fold change /veh PLEKHG5 (11743358_a_at) / RFU ZSCAN30 (11745921_a_at) / Fold change /veh ZSCAN30 (11745921_a_at) / RFU CMKLR1 (11741424_a_at) / Fold change /veh CMKLR1 (11741424_a_at) / RFU LOC101060620 /// MAPK8IP1 (11723275_at) / Fold change /veh LOC101060620 /// MAPK8IP1 (11723275_at) / RFU SPTSSB (11747773_x_at) / Fold change /veh SPTSSB (11747773_x_at) / RFU PRSS12 (11739890_at) / Fold change /veh PRSS12 (11739890_at) / RFU BIN1 (11741810_x_at) / Fold change /veh BIN1 (11741810_x_at) / RFU WNT11 (11732464_a_at) / Fold change /veh WNT11 (11732464_a_at) / RFU C10orf10 (11716521_a_at) / Fold change /veh C10orf10 (11716521_a_at) / RFU C5orf56 (11738089_at) / Fold change /veh C5orf56 (11738089_at) / RFU CYB561 (11721691_x_at) / Fold change /veh CYB561 (11721691_x_at) / RFU ANKRD19P (11752326_a_at) / Fold change /veh ANKRD19P (11752326_a_at) / RFU OR2T12 /// OR2T33 /// OR2T8 (11738714_s_at) / Fold change /veh OR2T12 /// OR2T33 /// OR2T8 (11738714_s_at) / RFU VCAN (11748164_a_at) / Fold change /veh VCAN (11748164_a_at) / RFU JSRP1 (11732532_at) / Fold change /veh JSRP1 (11732532_at) / RFU KRTAP10-11 (11738290_x_at) / Fold change /veh KRTAP10-11 (11738290_x_at) / RFU MYO3A (11730013_a_at) / Fold change /veh MYO3A (11730013_a_at) / RFU EBF3 (11725865_a_at) / Fold change /veh EBF3 (11725865_a_at) / RFU CAMK2N1 (11719241_x_at) / Fold change /veh CAMK2N1 (11719241_x_at) / RFU C5orf56 (11738088_a_at) / Fold change /veh C5orf56 (11738088_a_at) / RFU OLFML3 (11715873_a_at) / Fold change /veh OLFML3 (11715873_a_at) / RFU LOC100653217 /// NTM (11731650_a_at) / Fold change /veh LOC100653217 /// NTM (11731650_a_at) / RFU MAPK11 (11762145_a_at) / Fold change /veh MAPK11 (11762145_a_at) / RFU FIZ1 (11724087_x_at) / Fold change /veh FIZ1 (11724087_x_at) / RFU OASL (11726364_x_at) / Fold change /veh OASL (11726364_x_at) / RFU SOX15 (11748057_x_at) / Fold change /veh SOX15 (11748057_x_at) / RFU CD79A (11719716_a_at) / Fold change /veh CD79A (11719716_a_at) / RFU HIST1H1D (11736915_at) / Fold change /veh HIST1H1D (11736915_at) / RFU CASKIN2 (11723855_a_at) / Fold change /veh CASKIN2 (11723855_a_at) / RFU LOC730098 (11760151_x_at) / Fold change /veh LOC730098 (11760151_x_at) / RFU OR4N2 (11742367_at) / Fold change /veh OR4N2 (11742367_at) / RFU PRRT2 (11749266_a_at) / Fold change /veh PRRT2 (11749266_a_at) / RFU SNX32 (11753110_a_at) / Fold change /veh SNX32 (11753110_a_at) / RFU CDHR5 (11726645_a_at) / Fold change /veh CDHR5 (11726645_a_at) / RFU RCAN1 (11760418_a_at) / Fold change /veh RCAN1 (11760418_a_at) / RFU FAM167A (11723789_a_at) / Fold change /veh FAM167A (11723789_a_at) / RFU FAM26E (11764081_at) / Fold change /veh FAM26E (11764081_at) / RFU ISYNA1 (11749810_s_at) / Fold change /veh ISYNA1 (11749810_s_at) / RFU ACY1 (11761880_at) / Fold change /veh ACY1 (11761880_at) / RFU 11764098_at / Fold change /veh 11764098_at / RFU SAMD14 (11745864_x_at) / Fold change /veh SAMD14 (11745864_x_at) / RFU NPB (11741838_a_at) / Fold change /veh NPB (11741838_a_at) / RFU TMPRSS6 (11731388_a_at) / Fold change /veh TMPRSS6 (11731388_a_at) / RFU KRTAP10-2 (11738614_at) / Fold change /veh KRTAP10-2 (11738614_at) / RFU ARHGAP8 /// PRR5-ARHGAP8 (11727945_x_at) / Fold change /veh ARHGAP8 /// PRR5-ARHGAP8 (11727945_x_at) / RFU KRTAP5-7 /// NADSYN1 (11734609_at) / Fold change /veh KRTAP5-7 /// NADSYN1 (11734609_at) / RFU RASL12 (11751679_a_at) / Fold change /veh RASL12 (11751679_a_at) / RFU CDKN2B (11736163_a_at) / Fold change /veh CDKN2B (11736163_a_at) / RFU PRF1 (11729649_at) / Fold change /veh PRF1 (11729649_at) / RFU, ZNF638 /// ZNF638-IT1 / Fold change vs veh, ZNF638 /// ZNF638-IT1 / RFU, PANK3 / Fold change vs veh, PANK3 / RFU, SH3YL1 / Fold change vs veh, SH3YL1 / RFU, ZEB2 / Fold change vs veh, ZEB2 / RFU, NRIP1 / Fold change vs veh, NRIP1 / RFU, PTTG1IP / Fold change vs veh, PTTG1IP / RFU, CAPN2 / Fold change vs veh, CAPN2 / RFU, MED14 / Fold change vs veh, MED14 / RFU, SNORA58 / Fold change vs veh, SNORA58 / RFU, C1orf63 / Fold change vs veh, C1orf63 / RFU, LRRFIP1 / Fold change vs veh, LRRFIP1 / RFU, NDUFAF7 / Fold change vs veh, NDUFAF7 / RFU, SLC12A2 / Fold change vs veh, SLC12A2 / RFU, IBTK / Fold change vs veh, IBTK / RFU, ESF1 / Fold change vs veh, ESF1 / Fold change vs veh, TMEM50B / RFU, TAOK1 / Fold change vs veh, TAOK1 / RFU, ACBD3 / Fold change vs veh, ACBD3 / RFU, TMA16 / Fold change vs veh, TMA16 / RFU, RWDD3 / Fold change vs veh, RWDD3 / RFU, BCAT1 / Fold change vs veh, BCAT1 / RFU, EDEM3 / Fold change vs veh, EDEM3 / RFU, TMEM33 / Fold change vs veh, TMEM33 / RFU, WDR75 / Fold change vs veh, WDR75 / RFU, AHCTF1 / Fold change vs veh, AHCTF1 / RFU, TFRC / Fold change vs veh, TFRC / RFU, ZDHHC17 / Fold change vs veh, ZDHHC17 / RFU, NOM1 / Fold change vs veh, NOM1 / RFU, ARL8B / Fold change vs veh, ARL8B / RFU, ZBTB11 / Fold change vs veh, ZBTB11 / RFU, TAMM41 / Fold change vs veh, TAMM41 / RFU, KIAA1704 /// LOC100996395 / Fold change vs veh, KIAA1704 /// LOC100996395 / RFU, ING1 / Fold change vs veh, ING1 / RFU, TRMT61B / Fold change vs veh, TRMT61B / RFU, FUBP3 / Fold change vs veh, FUBP3 / RFU, TP53 / Fold change vs veh, TP53 / RFU, TNKS2 / Fold change vs veh, TNKS2 / RFU, ZFP14 / Fold change vs veh, ZFP14 / RFU, ACTR2 / Fold change vs veh, ACTR2 / RFU, PPP3R1 / Fold change vs veh, PPP3R1 / RFU, PIK3R1 / Fold change vs veh, PIK3R1 / RFU, HNRNPA1 / Fold change vs veh, HNRNPA1 / RFU, RNF170 / Fold change vs veh, RNF170 / RFU, ZNF28 / Fold change vs veh, ZNF28 / RFU, RNGTT / Fold change vs veh, RNGTT / RFU, OGT / Fold change vs veh, OGT / RFU, BRD1 / Fold change vs veh, BRD1 / RFU, MARS / Fold change vs veh, MARS / RFU, ZNF655 / Fold change vs veh, ZNF655 / RFU, FAHD1 / Fold change vs veh, FAHD1 / RFU, BDP1 / Fold change vs veh, BDP1 / RFU, LRRCC1 / Fold change vs veh, LRRCC1 / RFU, ARID1A / Fold change vs veh, ARID1A / RFU, ZNF146 / Fold change vs veh, ZNF146 / RFU, ZNF330 / Fold change vs veh, ZNF330 / RFU, GPN3 / Fold change vs veh, GPN3 / RFU, C9orf123 / Fold change vs veh, C9orf123 / RFU, N4BP2L2 / Fold change vs veh, N4BP2L2 / RFU, ARFIP1 / Fold change vs veh, ARFIP1 / RFU, FAM179B / Fold change vs veh, FAM179B / RFU, BCL10 / Fold change vs veh, BCL10 / RFU, UHRF1BP1L / Fold change vs veh, UHRF1BP1L / RFU, BET1 / Fold change vs veh, BET1 / RFU, CNOT2 / Fold change vs veh, CNOT2 / RFU, ZNF268 / Fold change vs veh, ZNF268 / Fold change vs veh, ZNF507 / RFU, DGCR2 / Fold change vs veh, DGCR2 / RFU, WDSUB1 / Fold change vs veh, WDSUB1 / Fold change vs veh, HSP90B1 /// MIR3652 / RFU, ADSS / Fold change vs veh, ADSS / RFU, GK / Fold change vs veh, GK / RFU, ZNF148 / Fold change vs veh, ZNF148 / RFU, TAF9 / Fold change vs veh, TAF9 / RFU, SLC1A5 / Fold change vs veh, SLC1A5 / RFU, SLMO2 / Fold change vs veh, SLMO2 / RFU, ABCC4 / Fold change vs veh, ABCC4 / RFU, LOC101060439 /// RAP1B / Fold change vs veh, LOC101060439 /// RAP1B / RFU, RFX7 / Fold change vs veh, RFX7 / RFU, GTPBP10 / Fold change vs veh, GTPBP10 / RFU, CNEP1R1 / Fold change vs veh, CNEP1R1 / RFU, BIVM-ERCC5 /// ERCC5 / Fold change vs veh, BIVM-ERCC5 /// ERCC5 / RFU, ILF3 / Fold change vs veh, ILF3 / RFU 11762660_at / Fold change /veh 11762660_at / RFU VCAN (11757783_s_at) / Fold change /veh VCAN (11757783_s_at) / RFU DDX43 (11728927_at) / Fold change /veh DDX43 (11728927_at) / RFU KRT8 (11758188_x_at) / Fold change /veh KRT8 (11758188_x_at) / RFU NKD1 (11759106_at) / Fold change /veh NKD1 (11759106_at) / RFU SRD5A1 (11742802_a_at) / Fold change /veh SRD5A1 (11742802_a_at) / RFU TPSAB1 /// TPSB2 (11721975_s_at) / Fold change /veh TPSAB1 /// TPSB2 (11721975_s_at) / RFU GSTM3 (11746129_a_at) / Fold change /veh GSTM3 (11746129_a_at) / RFU IL23R (11737362_x_at) / Fold change /veh IL23R (11737362_x_at) / RFU TMEM51 (11727254_a_at) / Fold change /veh TMEM51 (11727254_a_at) / RFU PIWIL2 (11732686_x_at) / Fold change /veh PIWIL2 (11732686_x_at) / RFU ORM1 (11744905_x_at) / Fold change /veh ORM1 (11744905_x_at) / RFU CCDC152 (11743942_at) / Fold change /veh CCDC152 (11743942_at) / RFU ECM1 (11717891_a_at) / Fold change /veh ECM1 (11717891_a_at) / RFU IL23R (11748794_a_at) / Fold change /veh IL23R (11748794_a_at) / RFU TNFAIP8L3 (11732012_x_at) / Fold change /veh TNFAIP8L3 (11732012_x_at) / RFU MBOAT4 (11741988_at) / Fold change /veh MBOAT4 (11741988_at) / RFU 11764193_at / Fold change /veh 11764193_at / RFU TMEM53 (11763286_at) / Fold change /veh TMEM53 (11763286_at) / RFU MAGEB2 (11727129_at) / Fold change /veh MAGEB2 (11727129_at) / RFU TMEM200A (11744735_a_at) / Fold change /veh TMEM200A (11744735_a_at) / RFU CCDC152 (11751479_a_at) / Fold change /veh CCDC152 (11751479_a_at) / RFU FAM211A (11726209_a_at) / Fold change /veh FAM211A (11726209_a_at) / RFU RGS16 (11746705_a_at) / Fold change /veh RGS16 (11746705_a_at) / RFU VCAN (11755009_s_at) / Fold change /veh VCAN (11755009_s_at) / RFU RHOB (11743442_s_at) / Fold change /veh RHOB (11743442_s_at) / RFU RGS16 (11720943_a_at) / Fold change /veh RGS16 (11720943_a_at) / RFU RGS16 (11720944_at) / Fold change /veh RGS16 (11720944_at) / RFU, VPS4B / Fold change vs veh, VPS4B / RFU, CREB1 / Fold change vs veh, CREB1 / RFU, DNAJC13 / Fold change vs veh, DNAJC13 / RFU, GNAQ / Fold change vs veh, GNAQ / RFU, CDK5R1 / Fold change vs veh, CDK5R1 / RFU, ZRANB3 / Fold change vs veh, ZRANB3 / RFU, CUL4A / Fold change vs veh, CUL4A / RFU, CCNY / Fold change vs veh, CCNY / RFU, UFL1 / Fold change vs veh, UFL1 / RFU, COG3 / Fold change vs veh, COG3 / RFU, DIAPH2 / Fold change vs veh, DIAPH2 / RFU, SKA2 / Fold change vs veh, SKA2 / RFU, AFF3 / Fold change vs veh, AFF3 / RFU, LMF1 / Fold change vs veh, LMF1 / RFU, IPO11 / Fold change vs veh, IPO11 / RFU, DFFB / Fold change vs veh, DFFB / RFU, FOXP1 / Fold change vs veh, FOXP1 / RFU, CARD8 / Fold change vs veh, CARD8 / RFU, STRN3 / Fold change vs veh, STRN3 / RFU, ADK / Fold change vs veh, ADK / RFU, RASSF2 / Fold change vs veh, RASSF2 / RFU, WIPF1 / Fold change vs veh, WIPF1 / RFU, LARP1B / Fold change vs veh, LARP1B / RFU, RASA1 / Fold change vs veh, RASA1 / RFU, RB1 / Fold change vs veh, RB1 / RFU, PPFIA1 / Fold change vs veh, PPFIA1 / RFU, MAT2A / Fold change vs veh, MAT2A / RFU, CCT5 / Fold change vs veh, CCT5 / RFU, WDR92 / Fold change vs veh, WDR92 / RFU, CUX1 / Fold change vs veh, CUX1 / RFU, TTC7A / Fold change vs veh, TTC7A / RFU, TMEM135 / Fold change vs veh, TMEM135 / RFU, DEPTOR / Fold change vs veh, DEPTOR / RFU, CPM / Fold change vs veh, CPM / RFU, DNAJB6 / Fold change vs veh, DNAJB6 / RFU, CACNA2D3 / Fold change vs veh, CACNA2D3 / RFU, DTX4 / Fold change vs veh, DTX4 / RFU, TFCP2 / Fold change vs veh, TFCP2 / RFU, GMCL1 /// GMCL1P1 / Fold change vs veh, GMCL1 /// GMCL1P1 / RFU, AEBP2 / Fold change vs veh, AEBP2 / RFU, SNHG1 /// SNORD22 /// SNORD25 /// SNORD26 /// SNORD27 /// SNORD28 /// SNORD29 /// SNORD31 / Fold change vs veh, SNHG1 /// SNORD22 /// SNORD25 /// SNORD26 /// SNORD27 /// SNORD28 /// SNORD29 /// SNORD31 / Fold change (Aza/veh), C12orf56 (ProbeSet 11735607_a_at) / Fold change (ACY-1035/veh), C12orf56 (ProbeSet 11735607_a_at) / Fold change (Aza/veh), FGFR1OP (ProbeSet 11751329_s_at) / Fold change (ACY-1035/veh), FGFR1OP (ProbeSet 11751329_s_at) / Fold change (Aza/veh), VPS36 (ProbeSet 11739960_a_at) / Fold change (ACY-1035/veh), VPS36 (ProbeSet 11739960_a_at) / RFU SYPL1 (11715823_x_at) / Fold change /veh SYPL1 (11715823_x_at) / RFU IGFBP7 (11715501_s_at) / Fold change /veh IGFBP7 (11715501_s_at) / RFU REEP3 (11722064_at) / Fold change /veh REEP3 (11722064_at) / RFU IGLL1 (11728026_x_at) / Fold change /veh IGLL1 (11728026_x_at): dose or concentration left out as unconfirmed
Details: MV-4-11 cells, 48 hours

## Nc1ncn([C@@H]2O[C@H](CO)[C@@H](O)[C@H]2O)c(=O)n1 [azacitidine]
  RFU SPINT1 (11716480_a_at): 23.10 RFU
